From PubChem BioAssay (NCI)
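Results reflect a 48-hour exposure of cells in 96-well plates to compound at five concentrations. GI50 marks 50% less growth. TGI is the concentration that stops growth completely.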

Legend:
Experiment in all cases: growth of human tumour cells (NCI), 48 h
[1] = test system: RPMI-8226 leukemia
[2] = test system: SN12C renal
[3] = test system: HCT-15 colon
[4] = test system: 786-0 renal
[5] = test system: TK-10 renal
[6] = test system: SNB-75 CNS
[7] = test system: IGROV1 ovarian
[8] = test system: U251 CNS
[9] = test system: CCRF-CEM leukemia
[10] = test system: SR leukemia
[11] = test system: HOP-92 NSCLC
[12] = test system: NCI-H460 lung
[13] = test system: A498 renal
[14] = test system: SK-MEL-5 melanoma
[15] = test system: DU-145 prostate
[16] = test system: SNB-19 CNS
[17] = test system: MOLT-4 leukemia
[18] = test system: SW-620 colon
[19] = test system: UACC-62 melanoma
[20] = test system: HCC-2998 colon
[21] = test system: M14 melanoma
[22] = test system: SK-OV-3 ovarian
[23] = test system: OVCAR-4 ovarian
[24] = test system: OVCAR-3 ovarian
[25] = test system: T-47D breast
[26] = test system: COLO 205 colon
[27] = test system: CAKI-1 renal
[28] = test system: SF-268 CNS
[29] = test system: SK-MEL-2 melanoma
[30] = test system: HCT-116 colon
[31] = test system: MDA-MB-435
[32] = test system: RXF 393 renal
[33] = test system: MCF7 breast
[34] = test system: HS 578T breast
[35] = test system: OVCAR-8 ovarian
[36] = test system: PC-3 prostate
[37] = test system: LOX IMVI melanoma
[38] = test system: UACC-257 melanoma
[39] = test system: A549 NSCLC
[40] = test system: BT-549 breast
[41] = test system: MDA-MB-231 breast
[42] = test system: K-562 leukemia
[43] = test system: UO-31 renal
[44] = test system: NCI-H226 lung
[45] = test system: HT29 colon
[46] = test system: SF-539 CNS
[47] = test system: HOP-62 NSCLC
[48] = test system: SK-MEL-28 melanoma
[49] = test system: SF-295 CNS
[50] = test system: MALME-3M melanoma
[51] = test system: HL-60(TB) leukemia
[52] = test system: NCI-H23 lung
[53] = test system: NCI/ADR-RES ovarian
[54] = test system: ACHN renal
[55] = test system: KM12 colon
[56] = test system: OVCAR-5 ovarian
[57] = test system: NCI-H522 lung

In the case of `Cn1c(=O)c(-c2ccccc2Cl)cc2cnc(NC3CCOCC3)nc21`, the GI50 [1] is reported as > 15.7 µM, the TGI [1] is reported as > 25 µM and the GI50 [2] is reported as 8.05 µM. The TGI [2] was > 25 µM, the GI50 [3] was 9.82 µM and the TGI [3] was > 25 µM. The GI50 [4] was 13.1 µM, the TGI [4] was > 25 µM and the GI50 [5] was 6.19 µM. For the same molecule, the TGI [5] was > 22.9 µM, the GI50 [6] was 3.82 µM and the TGI [6] was > 25 µM. The GI50 [7] was 9.42 µM, the TGI [7] was > 25 µM and the GI50 [8] was 15.1 µM. For the same molecule, the TGI [8] was > 25 µM, the GI50 [9] was 14.8 µM and the TGI [9] was > 25 µM. The GI50 [10] was 8.3 µM, the TGI [10] was > 25 µM and the GI50 [11] was 4.27 µM. The TGI [11] was 21.6 µM, the GI50 [12] was 11.1 µM and the TGI [12] was > 25 µM. For the same molecule, the GI50 [13] was 3.34 µM, the TGI [13] was 15.5 µM and the GI50 [14] was 11 µM. The TGI [14] was > 25 µM, the GI50 [15] was 12.3 µM and the TGI [15] was > 25 µM. For the same molecule, the GI50 [16] was > 25 µM, the TGI [16] was > 25 µM and the GI50 [17] was 10.2 µM. For the same molecule, the TGI [17] was > 25 µM, the GI50 [18] was 14.8 µM and the TGI [18] was > 25 µM. For the same molecule, the GI50 [19] was 6.37 µM, the TGI [19] was > 25 µM and the GI50 [20] was > 21.8 µM. The TGI [20] was > 25 µM, the GI50 [21] was 5.66 µM and the TGI [21] was > 25 µM. The GI50 [22] was 8.89 µM, the TGI [22] was > 25 µM and the GI50 [23] was 10.4 µM. For the same molecule, the TGI [23] was > 25 µM, the GI50 [24] was > 22.7 µM and the TGI [24] was > 25 µM. For the same molecule, the GI50 [25] was 18.1 µM, the TGI [25] was > 25 µM and the GI50 [26] was 9.61 µM. For the same molecule, the TGI [26] was > 25 µM, the GI50 [27] was 6.58 µM and the TGI [27] was > 25 µM. For the same molecule, the GI50 [28] was 14.6 µM, the TGI [28] was > 25 µM and the GI50 [29] was 6.1 µM. For the same molecule, the TGI [29] was 14.7 µM, the GI50 [30] was 8.05 µM and the TGI [30] was > 25 µM. For the same molecule, the GI50 [31] was 7.22 µM, the TGI [31] was > 25 µM and the GI50 [32] was 5.19 µM. The TGI [32] was > 23.9 µM, the GI50 [33] was > 25 µM and the TGI [33] was > 25 µM. The GI50 [34] was 9.12 µM, the TGI [34] was > 25 µM and the GI50 [35] was 10.2 µM. For the same molecule, the TGI [35] was > 25 µM, the GI50 [36] was 21.4 µM and the TGI [36] was > 25 µM. For the same molecule, the GI50 [37] was 5.49 µM, the TGI [37] was > 25 µM and the GI50 [38] was 14.8 µM. The TGI [38] was > 25 µM, the GI50 [39] was 18.2 µM and the TGI [39] was > 25 µM. For the same molecule, the GI50 [40] was > 25 µM, the TGI [40] was > 25 µM and the GI50 [41] was 7.69 µM. The TGI [41] was > 25 µM, the GI50 [42] was 9.36 µM and the TGI [42] was > 25 µM. For the same molecule, the GI50 [43] was 6.8 µM, the TGI [43] was > 22.4 µM and the GI50 [44] was 12.3 µM. For the same molecule, the TGI [44] was > 25 µM, the GI50 [45] was 7.02 µM and the TGI [45] was > 25 µM. For the same molecule, the GI50 [46] was 11.1 µM, the TGI [46] was > 25 µM and the GI50 [47] was > 25 µM. For the same molecule, the TGI [47] was > 25 µM, the GI50 [48] was 10.7 µM and the TGI [48] was > 25 µM. For the same molecule, the GI50 [49] was 12.1 µM, the TGI [49] was > 25 µM and the GI50 [50] was 7.08 µM. The TGI [50] was > 22.3 µM, the GI50 [51] was 10.5 µM and the TGI [51] was > 25 µM. The GI50 [52] was 18.3 µM, the TGI [52] was > 25 µM and the GI50 [53] was 12.9 µM. For the same molecule, the TGI [53] was > 25 µM, the GI50 [54] was 4.64 µM and the TGI [54] was > 25 µM. The GI50 [55] was 21.1 µM, the TGI [55] was > 25 µM and the GI50 [56] was 18.5 µM. The TGI [56] was > 25 µM, the GI50 [57] was 12.6 µM and the TGI [57] was > 25 µM.

Work on `CN1CCCCC1CCN1c2ccccc2Sc2ccc(Br)cc21` (stereo not drawn) yielded a GI50 [1] of 2.24 µM, a TGI [1] of 5.49 µM and a GI50 [2] of 3.23 µM. The TGI [2] was 11.9 µM, the GI50 [3] was 3.17 µM and the TGI [3] was 10.2 µM. It also gave a GI50 [4] of 2.14 µM, a TGI [4] of 4.79 µM and a GI50 [5] of 1.99 µM. It also gave a TGI [5] of 5.14 µM, a GI50 [6] of 1.65 µM and a TGI [6] of 5.56 µM. It also gave a GI50 [7] of 2.37 µM, a TGI [7] of 6.37 µM and a GI50 [8] of 2.13 µM. For the same molecule, the TGI [8] was 4.66 µM, the GI50 [9] was 2.77 µM and the TGI [9] was 10.1 µM. For the same molecule, the GI50 [10] was 3.12 µM, the TGI [10] was 8.24 µM and the GI50 [11] was 1.4 µM. For the same molecule, the TGI [11] was 4.72 µM, the GI50 [12] was 2.29 µM and the TGI [12] was 5.01 µM. It also gave a GI50 [13] of 2.21 µM, a TGI [13] of 7.08 µM and a GI50 [14] of 1.78 µM. For the same molecule, the TGI [14] was 3.47 µM, the GI50 [15] was 3.7 µM and the TGI [15] was 12.6 µM. The GI50 [16] was 2.92 µM, the TGI [16] was 12.4 µM and the GI50 [17] was 2.83 µM. For the same molecule, the TGI [17] was 7.83 µM, the GI50 [18] was 2.08 µM and the TGI [18] was 5.04 µM. For the same molecule, the GI50 [19] was 1.83 µM, the TGI [19] was 4.1 µM and the GI50 [20] was 1.97 µM. It also gave a TGI [20] of 4.11 µM, a GI50 [21] of 1.83 µM and a TGI [21] of 3.34 µM. It also gave a GI50 [22] of 3.44 µM, a TGI [22] of 12.3 µM and a GI50 [23] of 3.6 µM. It also gave a TGI [23] of 13.6 µM, a GI50 [24] of 3.36 µM and a TGI [24] of 11.7 µM. It also gave a GI50 [25] of 3.61 µM, a TGI [25] of 14.4 µM and a GI50 [26] of 2.04 µM. It also gave a TGI [26] of 4.2 µM, a GI50 [27] of 2.97 µM and a TGI [27] of 10.9 µM. It also gave a GI50 [28] of 2.44 µM, a TGI [28] of 6.61 µM and a GI50 [29] of 2.5 µM. The TGI [29] was 5.94 µM, the GI50 [30] was 1.88 µM and the TGI [30] was 3.67 µM. It also gave a GI50 [31] of 1.98 µM, a TGI [31] of 4.24 µM and a GI50 [32] of 2.18 µM. For the same molecule, the TGI [32] was 6.46 µM, the GI50 [33] was 2.06 µM and the TGI [33] was 4.27 µM. The GI50 [34] was 2.06 µM, the TGI [34] was 5.85 µM and the GI50 [35] was 2.11 µM. It also gave a TGI [35] of 4.47 µM, a GI50 [36] of 2.81 µM and a TGI [36] of 8.76 µM. For the same molecule, the GI50 [37] was 1.99 µM, the TGI [37] was 3.91 µM and the GI50 [38] was 1.91 µM. It also gave a TGI [38] of 3.55 µM, a GI50 [39] of 2.71 µM and a TGI [39] of 8.19 µM. It also gave a GI50 [40] of 4.17 µM, a TGI [40] of 17.7 µM and a GI50 [41] of 1.8 µM. The TGI [41] was 4.18 µM, the GI50 [42] was 2.18 µM and the TGI [42] was 5.98 µM. For the same molecule, the GI50 [43] was 2.68 µM, the TGI [43] was 10.8 µM and the GI50 [44] was 11.8 µM. For the same molecule, the TGI [44] was 28.8 µM, the GI50 [45] was 2.51 µM and the TGI [45] was 6.92 µM. For the same molecule, the GI50 [46] was 2.02 µM, the TGI [46] was 4.01 µM and the GI50 [47] was 5.46 µM. It also gave a TGI [47] of 22.8 µM, a GI50 [48] of 2.04 µM and a TGI [48] of 4.37 µM. For the same molecule, the GI50 [49] was 2.13 µM, the TGI [49] was 4.94 µM and the GI50 [50] was 2.08 µM. It also gave a TGI [50] of 4 µM, a GI50 [51] of 2.06 µM and a TGI [51] of 4.65 µM. The GI50 [52] was 4.44 µM, the TGI [52] was 17.1 µM and the GI50 [53] was 1.98 µM. For the same molecule, the TGI [53] was 4.13 µM, the GI50 [54] was 3.54 µM and the TGI [54] was 11.9 µM. It also gave a GI50 [55] of 2.22 µM, a TGI [55] of 4.78 µM and a GI50 [56] of 2.45 µM. It also gave a TGI [56] of 7.65 µM, a GI50 [57] of 1.73 µM and a TGI [57] of 3.49 µM.
